Measured values from article PMC11374673, “Discovery of isoquinoline sulfonamides as allosteric gyrase inhibitors with activity against fluoroquinolone-resistant bacteria” (Nature Chemistry, 2024).
Converted amounts (≈) assume the structure as drawn. “And” between values parts separate entries of the source, which are not always exact repeats. Equal values may be shown once.

Legend:
HEK293T = assay: Cytotoxicity assay (MTT); assay type: cell-based, human; details: for MTT data (raw readout): HEK293T; for IC50: 24 h, MTT
Summary of the method: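 HEK293T cells, maintained at 37 °C and 7% CO2 in Dulbecco’s modified Eagle medium with GlutaMax, antibiotics and serum, were plated in clear 96-well plates in 100 µl medium containing 1% fetal bovine serum and left 24 h to attach. After 24 h compound exposure, MTT (0.40 mg ml^−1) was added for 2 h. Formazan was dissolved in 100 µl DMSO and absorbance measured at 570 nm. Background-corrected IC50 values came from variable-slope non-linear fits.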

HepG2 = assay: Cytotoxicity assay (MTT); assay type: cell-based, human; details: for IC50: MTT, 24 h
A. baumannii ATCC BAA747 = assay: MIC by broth microdilution; assay type: cell-based; details: Acinetobacter baumannii, ATCCBAA747; read-out: MIC A. baumannii ATCC BAA747
Summary of the method: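 Broth microdilution in CAMHB with twofold compound series; exponential-phase cultures (OD600 0.5) diluted 100-fold as inoculum, Keio strains pre-grown with 50 µg ml^−1 kanamycin. Overnight incubation at 37 °C, shaking 600 r.p.m. MIC is lowest concentration without visible growth, median of at least triplicates.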

E. coli W3110 = assay: Checkerboard assay with PMBN;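 as to checkerboard plate reading, Average values: OD600 read after 20 h incubation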;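 as to checkerboard plate reading, replicate wells: OD600 read after 20 h incubation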

O=S(=O)(NC[C@@H]1CC[C@H](c2ccc(-c3cccnc3)cc2)N1)c1cccc2cnccc12 [LEI-800]
MTT data (raw readout) (HEK293T; 0.023 uM, experiment n = 1, technical triplicates, listed as LEI-800 (102)): 1.514 and 1.430 and 1.503
MTT data (raw readout) (HEK293T; 0.023 uM, experiment n = 2, technical triplicates, listed as LEI-800 (102)): 0.881 and 0.910 and 1.010
MTT data (raw readout) (HEK293T; 0.068 uM, experiment n = 1, technical triplicates, listed as LEI-800 (102)): 1.213 and 1.245 and 1.353
MTT data (raw readout) (HEK293T; 0.068 uM, experiment n = 2, technical triplicates, listed as LEI-800 (102)): 0.864 and 0.913 and 1.008
MTT data (raw readout) (HEK293T; 0.21 uM, experiment n = 1, technical triplicates, listed as LEI-800 (102)): 1.179 and 1.313 and 1.432
MTT data (raw readout) (HEK293T; 0.21 uM, experiment n = 2, technical triplicates, listed as LEI-800 (102)): 0.911 and 0.971 and 1.136
MTT data (raw readout) (HEK293T; 0.62 uM, experiment n = 1, technical triplicates, listed as LEI-800 (102)): 1.153 and 1.305 and 1.537
MTT data (raw readout) (HEK293T; 0.62 uM, experiment n = 2, technical triplicates, listed as LEI-800 (102)): 0.849 and 0.899 and 1.012
MTT data (raw readout) (HEK293T; 1.85 uM, experiment n = 1, technical triplicates, listed as LEI-800 (102)): 1.133 and 1.157 and 1.398
MTT data (raw readout) (HEK293T; 1.85 uM, experiment n = 2, technical triplicates, listed as LEI-800 (102)): 0.878 and 0.935 and 1.030
IC50 (HEK293T; Homo sapiens, HEK-293T): 65 µM
IC50 (HEK293T; listed as LEI-800 (102)): > 50 µM
MTT data (raw readout) (HepG2; HepG2, 0.023 uM, experiment n = 1, technical triplicates, listed as LEI-800 (102)): 0.404 and 0.388 and 0.378
MTT data (raw readout) (HepG2; HepG2, 0.023 uM, experiment n = 2, technical triplicates, listed as LEI-800 (102)): 0.268 and 0.286 and 0.353
MTT data (raw readout) (HepG2; HepG2, 0.068 uM, experiment n = 1, technical triplicates, listed as LEI-800 (102)): 0.391 and 0.379 and 0.435
MTT data (raw readout) (HepG2; HepG2, 0.068 uM, experiment n = 2, technical triplicates, listed as LEI-800 (102)): 0.250 and 0.293 and 0.379
MTT data (raw readout) (HepG2; HepG2, 0.21 uM, experiment n = 1, technical triplicates, listed as LEI-800 (102)): 0.377 and 0.445 and 0.431
MTT data (raw readout) (HepG2; HepG2, 0.21 uM, experiment n = 2, technical triplicates, listed as LEI-800 (102)): 0.243 and 0.281 and 0.327
MTT data (raw readout) (HepG2; HepG2, 0.62 uM, experiment n = 1, technical triplicates, listed as LEI-800 (102)): 0.371 and 0.373 and 0.384
MTT data (raw readout) (HepG2; HepG2, 0.62 uM, experiment n = 2, technical triplicates, listed as LEI-800 (102)): 0.248 and 0.278 and 0.343
MTT data (raw readout) (HepG2; HepG2, 1.85 uM, experiment n = 1, technical triplicates, listed as LEI-800 (102)): 0.402 and 0.403 and 0.424
MTT data (raw readout) (HepG2; HepG2, 1.85 uM, experiment n = 2, technical triplicates, listed as LEI-800 (102)): 0.281 and 0.293 and 0.337
IC50 (HepG2; Homo sapiens, HepG2, 24 h): > 100 µM
IC50 (HepG2; listed as LEI-800 (102)): > 50 µM
MIC (A. baumannii ATCC BAA747): 25 µM (≈ 11.1 µg/mL)
MIC (E. coli W3110; Escherichia coli, W3110): 3.13 µM
checkerboard plate reading, replicate wells (E. coli W3110; LEI-800 0.0488281 µM + PMBN 0 µM): 0.6247 and 0.5887 and 0.5873
checkerboard plate reading, Average values (E. coli W3110; LEI-800 0.0488281 µM + PMBN 0 µM (by position)): 0.6003
checkerboard plate reading, replicate wells (E. coli W3110; LEI-800 0.0488281 µM + PMBN 0.5 µM): 0.5854 and 0.5839 and 0.7031
checkerboard plate reading, Average values (E. coli W3110; LEI-800 0.0488281 µM + PMBN 0.5 µM (by position)): 0.5871
checkerboard plate reading, replicate wells (E. coli W3110; LEI-800 0.0488281 µM + PMBN 1 µM): 0.5898 and 0.5581 and 0.551
checkerboard plate reading, Average values (E. coli W3110; LEI-800 0.0488281 µM + PMBN 1 µM (by position)): 0.5855
checkerboard plate reading, replicate wells (E. coli W3110; LEI-800 0.0488281 µM + PMBN 2 µM): 0.674 and 0.6137 and 0.6739
checkerboard plate reading, Average values (E. coli W3110; LEI-800 0.0488281 µM + PMBN 2 µM (by position)): 0.6241
checkerboard plate reading, replicate wells (E. coli W3110; LEI-800 0.0488281 µM + PMBN 4 µM): 0.5444 and 0.5786 and 0.5784
checkerboard plate reading, Average values (E. coli W3110; LEI-800 0.0488281 µM + PMBN 4 µM (by position)): 0.615
checkerboard plate reading, replicate wells (E. coli W3110; LEI-800 0.0488281 µM + PMBN 8 µM): 0.315 and 0.3156 and 0.322
checkerboard plate reading, Average values (E. coli W3110; LEI-800 0.0488281 µM + PMBN 8 µM (by position)): 0.6041
checkerboard plate reading, replicate wells (E. coli W3110; LEI-800 0.0488281 µM + PMBN 16 µM): 0.3097 and 0.3235 and 0.4832
checkerboard plate reading, Average values (E. coli W3110; LEI-800 0.0488281 µM + PMBN 16 µM (by position)): 0.5663
checkerboard plate reading, replicate wells (E. coli W3110; LEI-800 0.0488281 µM + PMBN 32 µM): 0.3631 and 0.3487 and 0.3575
checkerboard plate reading, Average values (E. coli W3110; LEI-800 0.0488281 µM + PMBN 32 µM (by position)): 0.6049
checkerboard plate reading, replicate wells (E. coli W3110; LEI-800 0.0976562 µM + PMBN 0 µM): 0.5677 and 0.5498 and 0.5376
checkerboard plate reading, Average values (E. coli W3110; LEI-800 0.0976562 µM + PMBN 0 µM (by position)): 0.5517
checkerboard plate reading, replicate wells (E. coli W3110; LEI-800 0.0976562 µM + PMBN 0.5 µM): 0.5272 and 0.5363 and 0.6045
checkerboard plate reading, Average values (E. coli W3110; LEI-800 0.0976562 µM + PMBN 0.5 µM (by position)): 0.5382
checkerboard plate reading, replicate wells (E. coli W3110; LEI-800 0.0976562 µM + PMBN 1 µM): 0.5455 and 0.5265 and 0.5304
checkerboard plate reading, Average values (E. coli W3110; LEI-800 0.0976562 µM + PMBN 1 µM (by position)): 0.5337
checkerboard plate reading, replicate wells (E. coli W3110; LEI-800 0.0976562 µM + PMBN 2 µM): 0.528 and 0.523 and 0.4812
checkerboard plate reading, Average values (E. coli W3110; LEI-800 0.0976562 µM + PMBN 2 µM (by position)): 0.556
checkerboard plate reading, replicate wells (E. coli W3110; LEI-800 0.0976562 µM + PMBN 4 µM): 0.3324 and 0.3512 and 0.3333
checkerboard plate reading, Average values (E. coli W3110; LEI-800 0.0976562 µM + PMBN 4 µM (by position)): 0.5558
checkerboard plate reading, replicate wells (E. coli W3110; LEI-800 0.0976562 µM + PMBN 8 µM): 0.2503 and 0.2429 and 0.246
checkerboard plate reading, Average values (E. coli W3110; LEI-800 0.0976562 µM + PMBN 8 µM (by position)): 0.5538
checkerboard plate reading, replicate wells (E. coli W3110; LEI-800 0.0976562 µM + PMBN 16 µM): 0.2399 and 0.265 and 0.2959
